The record followed here is US10123993B2, “Cyclic ureas as inhibitors of rock” (BRISTOL-MYERS SQUIBB COMPANY, priority 2015, dated 2018).

The IC50 is the concentration needed to halve the response being measured.

Sequence of ROCK2 (O75116 whole entry, species assumed): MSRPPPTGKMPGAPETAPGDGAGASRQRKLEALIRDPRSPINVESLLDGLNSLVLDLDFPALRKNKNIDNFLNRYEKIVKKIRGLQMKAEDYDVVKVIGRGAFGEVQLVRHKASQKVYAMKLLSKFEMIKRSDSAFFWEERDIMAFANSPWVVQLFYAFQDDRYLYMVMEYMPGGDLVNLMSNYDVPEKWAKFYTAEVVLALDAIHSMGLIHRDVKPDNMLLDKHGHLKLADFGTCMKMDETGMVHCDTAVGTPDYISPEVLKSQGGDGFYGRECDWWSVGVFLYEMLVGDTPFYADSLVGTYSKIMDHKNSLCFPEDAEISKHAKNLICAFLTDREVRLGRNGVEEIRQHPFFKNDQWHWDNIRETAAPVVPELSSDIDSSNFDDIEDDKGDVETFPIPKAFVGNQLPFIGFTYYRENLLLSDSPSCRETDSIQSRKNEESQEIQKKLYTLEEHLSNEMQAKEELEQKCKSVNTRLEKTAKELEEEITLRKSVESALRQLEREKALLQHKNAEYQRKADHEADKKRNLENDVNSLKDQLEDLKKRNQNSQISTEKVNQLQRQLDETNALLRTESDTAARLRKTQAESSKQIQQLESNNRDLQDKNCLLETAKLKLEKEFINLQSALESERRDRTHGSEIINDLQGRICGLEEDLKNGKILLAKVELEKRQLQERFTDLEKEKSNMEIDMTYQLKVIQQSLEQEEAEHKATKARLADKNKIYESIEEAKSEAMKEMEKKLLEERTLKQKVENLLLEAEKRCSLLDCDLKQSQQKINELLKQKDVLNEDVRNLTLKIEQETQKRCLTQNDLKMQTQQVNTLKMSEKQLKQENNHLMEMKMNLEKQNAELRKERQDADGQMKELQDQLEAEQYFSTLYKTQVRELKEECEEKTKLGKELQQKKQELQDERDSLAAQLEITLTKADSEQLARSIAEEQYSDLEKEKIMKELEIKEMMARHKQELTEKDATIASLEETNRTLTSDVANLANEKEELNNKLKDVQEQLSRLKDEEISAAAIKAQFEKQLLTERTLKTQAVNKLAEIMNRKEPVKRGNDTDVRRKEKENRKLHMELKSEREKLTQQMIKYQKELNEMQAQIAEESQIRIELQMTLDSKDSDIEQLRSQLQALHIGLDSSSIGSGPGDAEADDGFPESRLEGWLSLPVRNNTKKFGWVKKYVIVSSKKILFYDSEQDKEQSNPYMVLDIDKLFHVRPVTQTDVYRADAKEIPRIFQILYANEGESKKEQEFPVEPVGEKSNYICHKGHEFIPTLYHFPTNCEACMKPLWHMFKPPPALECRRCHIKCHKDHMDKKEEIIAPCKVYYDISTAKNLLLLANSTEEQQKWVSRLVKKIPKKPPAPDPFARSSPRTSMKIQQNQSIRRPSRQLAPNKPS

The experiment has as its target ROCK2 (Homo sapiens, UniProt O75116). Nature of the experiment: ROCK2 kinase inhibition assay (Caliper LABCHIP, FITC peptide substrate). The class given is biochemical. As to conditions: 5 μM ATP, 1.5 μM peptide substrate; value ranges. In outline:
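Dose-response curves gave IC50 from inhibition of peptide phosphorylation, measured by LabChip separation after EDTA stop. Reactions used 1.5 μM FITC-labelled peptide, 5 μM ATP, 20 mM HEPES pH 7.5 with MgCl2, Brij-35, DTT, and under 2% DMSO.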
In the case of `COc1cccc(C(C)n2ccn(-c3ccc(-c4cn[nH]c4)cn3)c2=O)c1` (single isomer, unassigned) [Example 354, 1-(5-(1H-pyrazol-4-yl)pyridin-2-yl)-3-(1-(3-methoxyphenyl)ethyl)-1H-imidazol-2(3H)-one], the IC50 lay within 20.1 to 200 nM.
The same measure for `O=C1N(Cc2ccc(F)c(F)c2)CCN1c1ccc(-c2cn[nH]c2)cn1` [Example 238, 1-(5-(1H-pyrazol-4-yl)pyridin-2-yl)-3-(3,4-difluorobenzyl)imidazolidin-2-one]: 200 to 2000 nM.
In the case of `COc1cc(Cn2ccn(-c3ccc(-c4cn[nH]c4)cn3)c2=O)ccc1F` [Example 346, 1-(5-(1H-pyrazol-4-yl)pyridin-2-yl)-3-(4-fluoro-3-methoxybenzyl)-1H-imidazol-2(3H)-one], the IC50 was in the range of 20.1 to 200 nM.
The same measure for `COc1cccc(CN2C(=O)N(c3ccc(-c4cn[nH]c4)c(OC)c3)CC2CO)c1` (centres unmarked) [Example 40, 4-(Hydroxymethyl)-1-(3-methoxy-4-(1H-pyrazol-4-yl)phenyl)-3-(3-methoxybenzyl)imidazolidin-2-one]: below 2 nM; for `COc1cccc(CN2CC(CO)N(c3ccc(-c4cn[nH]c4)cc3)C2=O)c1` (single isomer, unassigned; (+)) [Example 48, (+)-3-(4-(1H-Pyrazol-4-yl)phenyl)-4-(hydroxymethyl)-1-(3-methoxybenzyl)imidazolidin-2-one]: 2.1 to 20 nM.
To `COc1cccc(CN2CCN(c3ccc(-c4ccncc4F)cc3)C2=O)c1` [Example 50, 1-(4-(3-fluoropyridin-4-yl)phenyl)-3-(3-methoxybenzyl)imidazolidin-2-one] belongs 20.1 to 200 nM.
In turn, `O=c1n(Cc2cccnc2)ccn1-c1ccc(-c2cn[nH]c2)cc1` [Example 410, 1-(4-(1H-pyrazol-4-yl)phenyl)-3-(pyridin-3-ylmethyl)-1H-imidazol-2(3H)-one] returned an IC50 of 20.1 to 200 nM.
To `COc1cccc(CN2CCN(c3ccc(-c4cn[nH]c4)nc3)C2=O)c1` [Example 439, 1-(6-(1H-pyrazol-4-yl)pyridin-3-yl)-3-(3-methoxybenzyl)imidazolidin-2-one] belongs 2.1 to 20 nM.
To `CC(c1ccccc1)n1ccn(-c2ccc(-c3cn[nH]c3)cc2)c1=O` (single isomer, unassigned; (-)) [Example 73, (−)-1-(4-(1H-pyrazol-4-yl)phenyl)-3-(1-phenylethyl)-1H-imidazol-2(3H)-one] belongs 20.1 to 200 nM; to `Cc1cccc(CN2CCN(c3ccc(-c4cn[nH]c4)cn3)C2=O)c1` [Example 234, 1-(5-(1H-pyrazol-4-yl)pyridin-2-yl)-3-(3-methylbenzyl)imidazolidin-2-one], 20.1 to 200 nM.
`COc1cccc(C(C(=O)O)N2CCN(c3ccc(-c4cn[nH]c4)cc3)C2=O)c1` (single isomer, unassigned) [Example 288, 2-(3-(4-(1H-Pyrazol-4-yl)phenyl)-2-oxoimidazolidin-1-yl)-2-(3-methoxyphenyl)acetic Acid]: the IC50 lay in the range of 200 to 2000 nM.
The same measure for `CCc1nc(N2CCN(C(CO)c3cccc(OC)c3)C2=O)ccc1-c1cn[nH]c1` (single isomer, unassigned) [Example 159, 1-(6-ethyl-5-(1H-pyrazol-4-yl)pyridin-2-yl)-3-(2-hydroxy-1-(3-methoxy-phenyl)ethyl) imidazolidin-2-one]: below 2 nM; for `COc1cccc(CN2CCN(c3ccc(-c4c[nH]nc4C)c(OC)n3)C2=O)c1` [Example 320, 1-(6-methoxy-5-(5-methyl-1H-pyrazol-4-yl)pyridin-2-yl)-3-(3-methoxybenzyl)imidazolidin-2-one]: 2.1 to 20 nM.
Regarding `COc1cccc(C(C)N2CCN(c3cc(C)c(-c4cn[nH]c4)cn3)C2=O)c1` (single isomer, unassigned) [Example 470, 1-(1-(3-methoxyphenyl)ethyl)-3-(4-methyl-5-(1H-pyrazol-4-yl)pyridin-2-yl)imidazolidin-2-one], the IC50 was 20.1 to 200 nM.
`COc1nc(N2CCN(Cc3cccc(OC(F)F)c3)C2=O)ccc1-c1cn[nH]c1` [Example 233, 1-(3-(difluoromethoxy)benzyl)-3-(6-methoxy-5-(1H-pyrazol-4-yl)pyridin-2-yl)imidazolidin-2-one] yielded an IC50 of 2.1 to 20 nM.
The same measure for `COc1cccc(Cn2ccn(-c3ccc(-c4cn[nH]c4)c(OC)n3)c2=O)c1` [Example 376, 1-(6-methoxy-5-(1H-pyrazol-4-yl)pyridin-2-yl)-3-(3-methoxybenzyl)-1H-imidazol-2(3H)-one]: below 2 nM.
The same measure for `COc1cccc(CN2C(=O)N(c3ccc(-c4cn[nH]c4)cc3)C(=O)C2CO)c1` (centres unmarked) [Example 121, 3-(4-(1H-Pyrazol-4-yl)phenyl)-5-(hydroxymethyl)-1-(3-methoxybenzyl)imidazolidine-2,4-dione]: 200 to 2000 nM; for `COc1cccc(CN2CC(CO)N(c3ccc(-c4cn[nH]c4)cc3)C2=O)c1` (single isomer, unassigned; (-)) [Example 47, (−)-3-(4-(1H-Pyrazol-4-yl)phenyl)-4-(hydroxymethyl)-1-(3-methoxybenzyl)imidazolidin-2-one]: 20.1 to 200 nM.
Consider `O=C1N(c2ccc(-c3cn[nH]c3)cc2)CCN1C(CO)c1ccccc1` (single isomer, unassigned) [Example 163, 1-(4-(1H-pyrazol-4-yl)phenyl)-3-(2-hydroxy-1-phenylethyl) imidazolidin-2-one], for which the 50% inhibitory concentration (IC50) was in the range of 2.1 to 20 nM.
Take `COc1cccc(C(CO)N2CCN(c3ccc(-c4cn[nH]c4)cn3)C2=O)c1` (single isomer, unassigned) [Example 461, 1-(5-(1H-pyrazol-4-yl)pyridin-2-yl)-3-(2-hydroxy-1-(3-methoxyphenyl)ethyl)imidazolidin-2-one]: the IC50 is below 2 nM.
With `CCOc1cccc(C(C)N2CCN(c3ccc(-c4cn[nH]c4)c(CC)n3)C2=O)c1` (single isomer, unassigned) [Example 266, 1-(1-(3-ethoxyphenyl)ethyl)-3-(6-ethyl-5-(1H-pyrazol-4-yl)pyridin-2-yl)imidazolidin-2-one], the IC50 was in the range of 2.1 to 20 nM.
In turn, `COc1cc(CN2CCN(c3cc(F)c(-c4cn[nH]c4)cc3F)C2=O)ccc1F` [Example 449, 1-(2,5-difluoro-4-(1H-pyrazol-4-yl)phenyl)-3-(4-fluoro-3-methobenzyl)imidazolidin-2-one] displayed an IC50 of 20.1 to 200 nM.
`COc1ccc(F)cc1CN1CCN(c2ccc(-c3cn[nH]c3)c(OC)n2)C1=O` [Example 222, 1-(5-fluoro-2-methoxybenzyl)-3-(6-methoxy-5-(1H-pyrazol-4-yl)pyridin-2-yl)imidazolidin-2-one] showed an IC50 of 2.1 to 20 nM.
To `CCc1nc(-n2ccn(Cc3cccc(OC)c3)c2=O)ccc1-c1cn[nH]c1` [Example 180, 1-(6-ethyl-5-(1H-pyrazol-4-yl)pyridin-2-yl)-3-(3-methoxy-benzyl)-1H-imidazol-2(3H)-one] belongs below 2 nM; to `COc1cc(F)cc(CN2CCN(c3ccc(-c4cn[nH]c4)c(C)n3)C2=O)c1` [Example 178, 1-(3-fluoro-5-methoxy-benzyl)-3-(6-methyl-5-(1H-pyrazol-4-yl)pyridin-2-yl)-imidazolidin-2-one], 2.1 to 20 nM; to `N#Cc1cccc(CN2CCN(c3ccc(-c4cn[nH]c4)cn3)C2=O)c1` [Example 235, 3-((3-(5-(1H-pyrazol-4-yl)pyridin-2-yl)-2-oxoimidazolidin-1-yl)methyl)benzonitrile], 200 to 2000 nM.
In turn, `COc1cc(F)cc(CN2C(=O)CN(c3ccc(-c4cn[nH]c4)c(OC)c3)C2=O)c1` [Example 101, 3-(3-fluoro-5-methoxybenzyl)-1-(3-methoxy-4-(1H-pyrazol-4-yl)phenyl) imidazolidine-2,4-dione] showed an IC50 of 2.1 to 20 nM.
To `COc1cc(N2C(=O)CN(Cc3ccccc3)C2=O)ccc1-c1cn[nH]c1` [Example 88, 1-benzyl-3-(3-methoxy-4-(1H-pyrazol-4-yl)phenyl)imidazolidine-2,4-dione] belongs 200 to 2000 nM; to `CC(c1ccccc1)n1ccn(-c2ccc(-c3cn[nH]c3)cc2)c1=O` (centres unmarked) [Example 331, 1-(4-(1H-pyrazol-4-yl)phenyl)-3-(1-phenylethyl)-1H-imidazol-2(3H)-one], 2.1 to 20 nM; to `COc1cccc(CN2C(=O)N(c3ccc(-c4cn[nH]c4)cn3)C[C@H]2CO)c1` [Example 314, (S)-1-(5-(1H-pyrazol-4-yl)pyridin-2-yl)-4-(hydroxymethyl)-3-(3-methoxybenzyl)imidazolidin-2-one], 2.1 to 20 nM.
The same measure for `COc1cc(-c2cn[nH]c2)ccc1N1CCN(Cc2ccccc2)C1=O` [Example 12, 1-Benzyl-3-(2-methoxy-4-(1H-pyrazol-4-yl)phenyl)imidazolidin-2-one]: 200 to 2000 nM.
The same measure for `CCc1cc(-n2ccn(C(CO)c3cccc(OC)c3)c2=O)ccc1-c1cn[nH]c1` (single isomer, unassigned) [Example 359, 1-(3-ethyl-4-(1H-pyrazol-4-yl)phenyl)-3-(2-hydroxy-1-(3-methoxyphenyl)ethyl)-1H-imidazol-2(3H)-one]: 20.1 to 200 nM; for `CCc1nc(N2CCN(C(CO)c3cccc(OC)c3)C2=O)ccc1-c1cn[nH]c1` (single isomer, unassigned) [Example 158, 1-(6-ethyl-5-(1H-pyrazol-4-yl)pyridin-2-yl)-3-(2-hydroxy-1-(3-methoxy-phenyl)ethyl) imidazolidin-2-one]: 20.1 to 200 nM; for `O=C1N(c2ccc(-c3cn[nH]c3)cc2)CC(CO)N1Cc1ccccc1` (centres unmarked) [Example 38, 1-(4-(1H-Pyrazol-4-yl)phenyl)-3-benzyl-4-(hydroxymethyl)imidazolidin-2-one]: 2.1 to 20 nM.
For `COc1cccc(CN2C(=O)N(c3ccc(-c4cn[nH]c4)cn3)C[C@@H]2CO)c1` [Example 474, (R)-1-(5-(1H-pyrazol-4-yl)pyridin-2-yl)-4-(hydroxymethyl)-3-(3-methoxybenzyl)imidazolidin-2-one], the IC50 was 2.1 to 20 nM.
